The subject of data set [1] is Nrf2. Put plainly: Nrf2-dependent luciferase reporter assay in AREc32 cell line. The format is cell-based. The following applies: AREc32 cells; for Nrf2 induction (luciferase activity), result in words: 24 h, compound 7 also at 60 and 100 μM; for EC50: Arec32, 24 h, read-out: CD (concentration required to double the luciferase reporter activity). On the procedure:
Thereafter, we tested the ability of the compounds to induce the Nrf2 transcription factor. We used an Nrf2-dependent luciferase reporter assay in the AREc32 cell line[45]. Cells were cultured for 24 h and then treated with increasing concentrations of compounds 5a–t (0.3, 3, 10 and 30 μM), including the known inducer sulforaphane, containing an isothiocyanate motive as positive control.
AREc32 cells were plated in 96-well white plates (2 × 10^4 cells/well). After 24 h, cells were incubated with increasing concentrations of each compound in duplicate for 24 h. AREc32 cells express constitutively the plasmid pGL-8xARE that implements 8 copies of the EpRE sequences followed by luciferase reporter gen. Therefore, Nrf2 induction is related to the activation of EpRE sequences, expressing luciferase at the same extent as EpRE sequences are activated. The Luciferase Assay System (Promega E1500), was used according to provider protocol and luminescence was quantified in an Orion II microplate luminometer (Berthold, Germany). Fold induction of luciferase activity was normalized to basal conditions. Data are expressed as CD values, expressing the concentration required to double the luciferase activity. CD values are calculated from dose-response curves generated from fold induction of control conditions vs. inducer concentration and fitted by non-linear regression and data interpolated to 2-fold induction concentration.
Breast cancer cells stably transfected to express luciferase after EpRE sequences MCF-7/AREc32 named AREc32, were kindly provided by Dr. C. Roland Wolf (University of Dundee, UK).^14 AREc32 cells were maintained in DMEM with high glucose-glutamax, supplemented with 10 % FBS, 1 % penicillin-streptomycin (10,000 units), and geneticin (0.8 mg/ml G418) at 37 °C and in a 5 % CO2- air atmosphere.^14
AREc32 cells are constitutively transfected with the pGL-8xARE luciferase reporter gene, inserted after EpRE sequences. Thus, Nrf2 translocation to the nucleus induces the activation of the EpRE sequences, expressing their target phase II antioxidant genes, and expressing luciferase at the same extent.^15 AREc32 cells were plated in 96-well white plates (2X10^4 cells/well). After 24 h, cells were incubated with increasing concentrations of each compound in duplicate for 24 h (dissolved in DMSO to give a final 0.1 % vol/vol concentration of vehicle). Each plate included non-treated cells as basal luciferase expression and tBHQ (10 µM) as positive control. TBHQ is a potent Nrf2 inducer used as control in the development of the AREc32 cells.^14 Transfected clones are selected using G418. AREc32 cells express constitutively the plasmid pGL-8xARE that implements 8 copies of the EpRE sequences followed by a luciferase reporter gene. Therefore, the induction of Nrf2 is proportional to the activation of EpRE sequences, expressing luciferase at the same extent as EpRE sequences are activated. Luciferase production is then assessed by a bioluminescence assay. The Luciferase Assay System (Promega E1500), was used according to the Promega protocol and luminescence was quantified in an Orion II microplate luminometer (Berthold, Germany). Relative Light Units (RLU) were recorded for the contents of each well. Fold induction of luciferase activity was calculated by dividing the RLU obtained for the tests wells for each treatment by the average RLU obtained for the basal conditions. Data are expressed as CD values, expressing the concentration required to double the basal luciferase activity, used to quantify the Nrf2 induction potency. CD values are calculated from dose-response curves generated from fold induction of control conditions vs. inducer concentration and fitted by non-linear regression and data interpolated to value the 2-fold induction concentration, using GraphPad Prism software (San Diego, CA, USA).
For orientation: A reporter such as luciferase makes a cellular process visible.

Data set [2] deals with SH-SY5Y cells. The following applies: human, 24 h.
Method: (§4) Viability was measured as MTT reduction in presence of increasing concentrations of derivatives. Values are expressed as LD50 calculated from dose-response curves of four different concentrations.
(§5) Cells were cultured in 48-well (SH-SY5Y, 1x10^5 cells per well) or 96-well plates (HepG2, 1x10^5 cells per well) for 24 h. […] Control cells were incubated with the same concentration of DMSO (0.1 % final concentration) without any drug.
Data set [3] relates to HepG2 cells. Conditions: human, 24 h.
Method: (§6) Thus, it is relevant to study the potential neurotoxicity and hepatotoxicity of the novel dual GSK3β inhibitors-Nrf2 inducers 5a–t.
as §4
(§7) HepG2 cells were cultured according to supplier indications in EMEM supplemented with 10 % heat-inactivated FBS, 100 µg/mL streptomycin and 100 units/mL penicillin. Cells were maintained at 37 °C in humidified atmosphere of 95 % air and 5 % CO2. For experimental procedures, cells were cultured in 96-well plates at density of 1x10^5 cells/well. Treatments were performed in 1% FBS medium unless other concentration was specified. Cells were used from 4 up to 13 passages.
as §5
The target of data set [4] is T1, GSK3β (Homo sapiens, UniProt P49841).
T1 construct: purchased Promega V1991
Put plainly: GSK3β inhibition, luminescence Kinase-Glo assay. The following applies: for Ki: calculated from IC50 by Cheng-Prusoff equation, Km ATP 2.345 µM, read-out: Ki (apparent equilibrium dissociation constant); for IC50: four concentrations 0.1, 1, 10, 30 μM, ATP 1 μM, 1 h. The data set is classed as biochemical.
Method: GSK3β inhibitory activity was evaluated using the method developed by Baki[66], with modifications. Compounds were dissolved in assay buffer, containing 40 mM Tris (pH 7.5), 20 mM MgCl2, 0.1 mg/ml BSA (bovine serum albumin) and 50 μM dithiothreitol (DTT) at the desired concentrations. Firstly, 10 μl of enzyme (10 ng) and 10 μl of each compound were mixed for 30 min. Then, 20 μl of a mixture of ATP (1 μM) and GSK3β peptidic substrate were added to each well. The mixture was incubated for 60 min at 30 °C. Thereafter, the remaining ATP concentration was measured with the Kinase-Glo system following instructions from the supplier. Luminescence was measured in an Orion II microplate luminometer (Berthold, Germany) as relative light units (RLU). […] IC50 values were calculated by non-linear regression analysis of individual concentration-response curves using GraphPad Prism 5.0 software (San Diego, CA, USA).
The ability of the compounds to inhibit GSK3β was evaluated using the method developed by Baki^9 with some modifications. The tested compounds were dissolved in assay buffer, containing 40 mM Tris (pH 7.5), 20 mM MgCl2, 0.1 mg/ml BSA (bovine serum albumin) and 50 µM dithiothreitol (DTT), to achieve final reaction concentrations of 0.1, 1, 10 and 30 µM. […] The GSK3β inhibition assay was performed in white 96-well plates, in duplicates. Firstly, 10 µl of enzyme (10 ng) were added to each well, followed by 10 µl of the compounds at the desired concentration. After 30 minutes, 20 µl of a mixture of ATP and GSK3β peptidic substrate were added to each well, achieving a final concentration of 1 µM of ATP and 25 of µM peptidic substrate. The mixture was incubated at 30 °C for 60 minutes. Once the reaction was finished, the remaining ATP concentration was measured by adding 40 µl/well of Kinase-Glo reagent. The luminescence was measured in an Orion II microplate luminometer (Berthold, Germany) as relative light units (RLU). The luminescence recorded is proportional to the amount of ATP present in each well.
Apparent Ki for each compound were calculated from GSK3β Km value for ATP, applying the Cheng-Prusoff equation^10,11 in its simplified form: Ki = IC50/(1+([S]/Km)), in which S refers to the ATP concentration and Km is the Michaelis constant of the substrate for GSK3β.

Data set [5] concerns primary rat glial cells. Put plainly: Nitrite production in LPS-stimulated primary glial cultures (Griess). Conditions: Glial cell, 24 h pre-incubation, 18 h co-incubation with LPS 1 μg/mL, read-out: IC50 nitrite reduction. The format is cell-based. The source says: (§1) Therefore, we envisaged the study of compounds 5a–t as potential anti-inflammatory agents. We used primary rat glial cells treated with lipopolysaccharide (LPS) to induce the production of nitrites and ROS as a model of glial activation. Nitrite production is directly proportional to the expression of the iNOS, that is over-expressed when LPS activates glial cells. ROS production is proportional to NOX activation after stimulation with LPS. Results are summarized in Table 2 as IC50s of nitrite production reduction and ROS production reduction. We have included sulforaphane as control in all experiments (see the Supporting Information).
Glial cells were pre-incubated with increasing concentrations of compounds for 24 hours. Then, treatments were removed and cells were incubated with LPS (1 μg/mL) alone or in presence of each compound at the desired concentration. Nitrite production was assessed 18 hours later by modified Griess assay. Briefly, samples (150 μl) were mixed with dapsone (75 μl) and NEDA (75 μl), and the mixture was incubated at room temperature for 5 min. Light absorption was measured at 550 nm in a microplate reader (Labtech, Offenburg, Germany). All data were normalized to basal nitrite production, considering this value as 100% of nitrite production. IC50 values were calculated from dose-response curves represented as percentage of nitrite production reduction induced by the different concentrations of each compound.
(§2) Mixed glial cultures were obtained from cerebral cortex of 2-5 day-old Sprague-Dawley rats. After removal of blood vessels and meninges, the forebrains were dissociated in DMEM/F12 medium. After mechanical dissociation, cells were plated (3x10^5 cells/ml) in DMEM/F12 medium with 20% fetal bovine serum (FBS) and 1 % penicillin/streptomycin (10,000 units), at 37 °C and in a 5 % CO2-supplemented air atmosphere. After 5 days, medium was substituted by DMEM/F12 medium with 10 % FBS. Cells were cultured for 7-10 days before treatment.
Primary rat glial cells were treated with compounds 5a-t at increasing concentrations (3, 10, 30 and 60 µM) during 24 h. Thereafter, treatments were removed and glial cells were co-incubated with increasing concentrations of each compound and LPS (1 µg/mL) for 18 h more. At the end of this period, supernatant was collected and the presence of nitrites was analyzed by the Griess method with modifications.^20 Each plate included non-treated cells as basal nitrite production, sulforaphane (SFN, 10 µM) as positive control. Briefly, samples (150 µl) were mixed with DAPSONE (75 µl) and NEDA (75 µl), and the mixture was incubated at room temperature for 5 min. Light absorption was measured at 550 nm in a microplate reader (Labtech, Offenburg, Germany). All data were normalized to basal nitrite production, considering this value as 100% of nitrite production. EC50 values were calculated from dose-response curves represented as percentage of nitrite production reduction induced by the different concentrations of each compound. Concentration response curves were fitted by non-linear regression analysis of individual concentration-response curves using GraphPad Prism software (San Diego, CA, USA). EC50 values are expressed as mean ± SEM of four different experiments in triplicate.
Background: The Griess reaction detects nitrite, a stable product of nitric oxide.

Data set [6] relates to primary rat glial cells. Put plainly: ROS production in LPS-stimulated primary glial cultures (H2DCFDA). The format is cell-based. The following applies: Glial cell, 24 h pre-incubation, 18 h co-incubation with LPS, 3 h with fluorescent dye, read-out: IC50 ROS reduction.
Excerpt: as §1
Besides the increase in nitrite production, it is well known that LPS stimulation of microglia also induces the activation of NOX, which induces superoxide free radical production. In fact, this mechanism is synergistic with the expression of iNOS and the production of nitrites. In this respect, there is a body of evidence showing that NOX activation is a major contributor to ROS oxidative stress and neuronal death in AD[57][58]. […] In general, potency to reduce ROS production increased from ortho to para and meta as observed above.
(§3) Primary glial cells were cultured in bottom transparent 96-well black plates following standard protocol. Cells were pre-incubated with the corresponding compound at the selected concentrations, for 24 hours, and therafter, co-incubated with the corresponding compound and LPS (1 μM) during 18 h more. Then, treatments were removed and cells were loaded with the fluorescent probe 2′,7′-dichlorodihydrofluorescein diacetate (H2DCFDA) (10 μM) for 45 minutes in serum free glial culture medium. All experiments included cells treated with culture medium alone (basal). Cells were washed twice with culture medium and fluorescence intensity was recorded in a Fluostar Optima multiwall pate reader (BMG Labtech, Offenburg, Germany) at 485/520 nm as excitation and emission wavelengths respectively, each hour, during 3 hours period. Data were normalized with respect to basal conditions that were considered as 100%.
as §3, with “µM)” for “μM)”, “2',7'-dichlorodihydrofluorescein” for “2′,7′-dichlorodihydrofluorescein”
as §2

For data set [7], the target named is T1, GSK3β. The following applies: cited from earlier work.
Data set [8] has as its system SH-SY5Y cells. Put plainly: Neuroprotection against okadaic acid (tau hyperphosphorylation), MTT. The data set is classed as cell-based. The following applies: 1 μM, 24 h pre-incubation, 18 h co-incubation with OA 20 nM.
The target of data set [9] is T2, Nrf2-Keap1 protein-protein interaction (Homo sapiens, UniProt Q14145).
T2 construct: a solution of the Keap1 Kelch domain (200 nM)
Put plainly: Fluorescence polarization assay of Nrf2-Keap1 interaction. Conditions: ligand concentration 10 µM; read-out: FP % Inhibition (± SEM). The data set is classed as binding. On the technique in general: Fluorescence polarisation rises when a labelled molecule tumbles more slowly, as on binding a larger partner.
Method: Data are presented the means ± SEM of two experiments performed in triplicate.
The FP assay was carried out as previously described.^16,17 Inhibitors (10 µM) were plated onto untreated Corning® black 96 well plates containing a solution of the Keap1 Kelch domain (200 nM) and the fluorescent peptide FITC-β-DEETGEF-OH (1 nM) in Dulbecco’s Phosphate Buffered Saline (DPBS) at pH 7.4 (11% final DMSO concentration, 100 µL final volume). Following a 30 min incubation under slow agitation and away from light at room temperature, the plates were transferred to a PHERAstar microplate reader (BMG Labtech, Ortenberg, Germany) and the fluorescence polarisation was recorded. All measurements were recorded in triplicate.

Data set [10] addresses T3, Keap1 Kelch domain (Homo sapiens, UniProt Q14145).
T3 construct: A solution of the Keap1 Kelch domain protein (5 µM)
Put plainly: Differential scanning fluorimetry assay. The format is binding. The following applies: ligand concentration 10 µM.
Method: A solution of the Keap1 Kelch domain protein (5 µM) and detection dye SYPRO® orange (5X) in DPBS at pH 7.4 was added onto a qPCR plate containing the compound inhibitor (10 µM, 10% final DMSO concentration, 40 µL final volume). The plate was sealed using an optical foil seal and covered with aluminum foil to protect the dye from light. The plate was then transferred to a plate centrifuge and spun down briefly (200 G, 1 min, room temperature) to remove any bubbles and collect the solution at the bottom of the wells. Following a 30 min incubation at room temperature, the plate was placed into a 7500 Real time PCR machine and the fluorescence intensity at an excitation of 465 nm and emission of 580 nm was recorded during a temperature scan from 25 °C to 95 °C with a temperature ramping rate of 1 °C/min. All measurements were run in triplicate. Life Technologies software was used to set up the run on 7500 Software v.2.0.0 and the initial data processing was carried out on Protein thermal shift solution software. The raw data were exported to MS Excel and analysis was performed using a custom script provided by the Structural Genomics Consortium Oxford.^18 The temperature range over which the protein unfolding occurred was selected and the maximum and minimum (at temperatures below the maximum intensity) fluorescence intensities within this range were determined. The processed data were fitted to the Boltzmann equation by non-linear regression using the Origin Pro software.

The test system of data set [11] is HepG2 cells. Put plainly: Hepatotoxicity in HepG2 cell line (MTT). Conditions: 24 h.
Method: as §6, §4, §7, §5
Data set [12] relates to SH-SY5Y cells. Put plainly: Cytotoxicity in SH-SY5Y neuroblastoma cell line (MTT). Conditions: 24 h.
Method: as §4, §5

Consider 6 molecules from PMC5374710, “Discovery of the first dual GSK3β inhibitor/Nrf2 inducer. A new multitarget therapeutic strategy for Alzheimer’s disease” (Scientific Reports, 2017).

A word on the IC50: it is the point on the concentration scale where inhibition reaches its midpoint. One may read the inhibition as how much of the control response was suppressed. The ΔTm is the shift of the melting midpoint relative to a reference.

Like-named read-outs stand apart in the source and are kept apart here.

T1 sequence (P49841 whole entry): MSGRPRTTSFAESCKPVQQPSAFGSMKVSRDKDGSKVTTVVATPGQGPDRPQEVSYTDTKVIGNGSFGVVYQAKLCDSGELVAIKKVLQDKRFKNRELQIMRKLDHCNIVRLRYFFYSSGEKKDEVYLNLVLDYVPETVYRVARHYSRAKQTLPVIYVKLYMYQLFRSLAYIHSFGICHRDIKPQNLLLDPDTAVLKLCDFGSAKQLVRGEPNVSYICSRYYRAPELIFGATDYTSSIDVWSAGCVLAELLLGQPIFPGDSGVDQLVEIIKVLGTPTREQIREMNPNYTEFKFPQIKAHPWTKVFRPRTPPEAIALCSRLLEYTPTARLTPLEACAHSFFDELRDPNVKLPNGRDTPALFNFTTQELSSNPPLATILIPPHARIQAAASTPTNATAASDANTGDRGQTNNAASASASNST
T2 sequence (Q14145 321-609 limits assumed): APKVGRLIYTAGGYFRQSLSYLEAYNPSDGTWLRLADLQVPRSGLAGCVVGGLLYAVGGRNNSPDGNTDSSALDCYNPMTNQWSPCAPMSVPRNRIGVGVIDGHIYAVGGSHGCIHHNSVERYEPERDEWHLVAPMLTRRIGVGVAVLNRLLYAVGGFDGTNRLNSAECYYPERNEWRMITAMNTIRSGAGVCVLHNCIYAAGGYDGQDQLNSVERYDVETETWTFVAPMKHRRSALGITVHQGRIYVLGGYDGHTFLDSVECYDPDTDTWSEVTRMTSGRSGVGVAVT
T3 sequence (Q14145 321-609 limits assumed): as above

Take `Cn1cc(C2=C(c3ccc(Cl)cc3Cl)C(=O)NC2=O)c2ccccc21` [SB216763, reference compound]: in [1], the “Nrf2 induction (luciferase activity), result in words” value is reported as “inability of the GSK3β inhibitor SB216763 to induce Nrf2 transcriptional activity” and the EC50 was > 30 µM. For the same molecule, in data set [2], the “SH-SY5Y LD50” value is > 100 µM. For the same molecule, in [3], the “HepG2 LD50” value was > 100 µM.

On to `Cc1[nH]nc2c1C(c1ccccc1)C(C#N)=C(N)N2` (stereo not shown) [Compound 7, 6-amino-3-methyl-4-phenyl-4,7-dihydro-2H-pyrazolo[3,4-b]pyridine-5-carbonitrile], for which, in data set [4], the Ki is 13.1 µM and the IC50 was determined as 18.6 ± 0.4 µM. Also, the “Nrf2 induction (luciferase activity), result in words” value in data set [1] is on record as “completely unable to induce Nrf2”.

Take `C[S+]([O-])CCCCN=C=S` (stereo not shown) [Sulforaphane]: in [1], the EC50 turned out to be 0.54 ± 0.07 µM. In addition, the 50% inhibitory concentration (IC50) was 1.4 ± 0.3 µM in data set [5] and 2.84 ± 0.55 µM in [6].

On to `N#Cc1c(N)nc2[nH]nc(N)c2c1-c1ccccc1` [Compound 2], for which, in [7], the concentration for half-maximal inhibition (IC50) was 1.5 µM.

In the case of `COc1ccc2[nH]cc(CCNC(C)=O)c2c1` [Melatonin], the “SH-SY5Y LD50” value in data set [2] is > 100 µM. The “HepG2 LD50” value in data set [3] is > 100 µM.

As for `Cc1[nH]nc2c1C(c1ccncc1)C(C#N)=C(N)O2` (stereo not shown) [Compound 5t, 6-Amino-3-methyl-4-(pyridin-4-yl)-2,4-dihydropyrano[2,3-c]pyrazole-5-carbonitrile], the Ki in data set [4] was 5.8 µM. For the same molecule, the IC50 in data set [4] was 8.28 ± 0.7 µM; in [5] it was 28.8 ± 3.61 µM; in data set [6] it was 37.8 ± 1.17 µM. Besides, the “Percentage of protection against okadaic acid toxicity” value in [8] was “over 50%”. In addition, the inhibition at 10 µM in [9] is 1.24 ± 3.22%. For the same molecule, in data set [10], the thermal shift (ΔTm) at 10 µM is -0.53 ± 0.28 °C. Further, in data set [11], the “HepG2 LD50” value was > 100 µM. For the same molecule, in [12], the “SH-SY5Y LD50” value is given as > 100 µM.
